Assay [1] relates to C57BL/6 mice. Put plainly: Delayed-type hypersensitivity immunisation with OVA in oil-in-water emulsion. It counts as in vivo. On the procedure: Delayed-type hypersensitivity: Mice were sensitised by subcutaneous injection with oil-in-water emulsions (mineral oil/Tween-80/PBS, 9:1:90, v/v/v) containing OVA only (200 μg), OVA+TDB (OVA=200 μg, TDB=0.3 μmol), OVA+9a (OVA=200 μg, 9a=0.3 μmol) or no OVA. After seven days, the mice were challenged with OVA (100 μg/footpad) and after a further seven days, the mice were sacrificed and their spleens harvested. For in vitro restimulation, splenocytes were restimulated with OVA and analysed for spenocyte number (measured at 450 nm after 3 hours, Cell Count Reagent SF, Nacalai Tesque Inc.), IFN-γ production, and IL-17 production. Footpad swelling was measured using a venier caliper pre-challenge, 24 hours post-challenge, and 48 hours post-challenge. Sera were collected from each mouse on days 0, 7, and 14 and analysed for OVA-specific antibody titers by ELISA using HRP coupled goat anti-mouse IgG (GE Health-care), IgG1, IgG2b, IgG2c, and IgG3 (SouthernBiotec). EC50 were defined by plotting the absorbance at 450 nm against log of serum concentration. Antibody titration curves were plotted using GraphPad Prism7 (GraphPad Software).
Compound 9a was then evaluated in vivo to confirm its capacity to induce a Th1 antigen-specific response using a delayed-type hypersensitivity immunisation protocol. To this end, four groups of C57BL/6 mice were immunised by subcutaneous injection with oil-in-water emulsions containing either OVA only, OVA+C18dMeBrar (9a), OVA+TDB, or no OVA. After seven days the mice were challenged with OVA (100 μg per footpad) and after a further seven days, the splenocytes were isolated and restimulated with OVA at three concentrations (10, 30, or 100 μg/mL). The immune response was measured by determining footpad swelling, production of IFN-γ and IL-17 (FIG. 7b), T cell proliferation (FIG. 4a), and antibody titres (FIG. 4c). […] Accordingly, the ability of C18dMeBrar (9a) to lead to an enhanced Th1 immune response was even more striking. This overall immune profile was also reflected in the antibody production by immunised mice. […] A high IgG2c:IgG1 ratio is commonly associated with Th1 responses and a lower ratio is associated with Th2 responses. The production of IgG2c in mice immunised with C18dMeBrar increased three-fold as compared to OVA alone, providing evidence that C18dMeBrar induces a Th1-biased immune response.

Assay [2] concerns wild-type GM-CSF BMDMs. Put plainly: Cytokine/chemokine production by wild-type GM-CSF BMDMs on ligand-coated plates. It counts as cell-based, C57BL/6 mice. The settings on record: wild-type BMDMs, coated plates 0.1 or 1 nmol/well, 24 hours, ELISA. How it is done: Preparation of ligand-coated plates: Brartemicin analogues 9a-9i, TDM (Carbosynth, Sigma Aldrich), and TDB^14 were dissolved in CHCl3:MeOH (2:1, 1 mM), diluted in isopropanol ([…]) and added to 96-well plates (20 μL/well). The solvents were evaporated and the coated plates were used immediately.
Murine bone-marrow derived macrophages: For the preparation of murine bone-marrow derived macrophages, bone marrow cells were collected from the tibias and femurs of C57BL/6 mice and cultured (250,000 cells/mL) in complete RPMI media [RPMI-1640 (Gibco) with 10% heat inactivated fetal bovine serum (Gibco), 100 unit/mL penicillin-streptomycin (Gibco) and 2 mM Glutamax (Gibco)] supplemented with 50 ng/mL GM-CSF (clone X63/GM-CSF murine cells). Cells were incubated at 37° C. (5% CO2) for 8 days (cells fed by replacing half the media on days 3 and 6). On day 8, all media was removed and the cells were washed with Dulbecco's Phosphate-Buffered Saline (DPBS, Gibco) to remove any loosely-adherent cells. The BMDMs were harvested with StemPro Acutase (1 mL/well, 15 minutes at room temperature, Gibco) and seeded onto a pre-coated 96-well plate. The supernatant was collected and analysed for cytokine/chemokine production after 24 hours.
Cytokine analysis: IL-1β, IFN-γ, IL-6, TNF-α (BD Biosciences), IL-17, and MIP-2 (R&D) levels were determined via sandwich ELISA according to the manufacturer's instructions.
First, the ability of the compounds to activate GM-CSF BMDMs was determined by monitoring the secretion of the inflammatory cytokines TNF, IL-6, and IL-1β and the chemokine, MIP-2, in a ligand-coated plate assay (FIG. 2).
To gain insight into the capacity of the 2G-series of brartemicin analogues to induce an inflammatory immune response, the analogues were then screened for their ability to activate WT and Mincle^−/− BMDMs, with cellular activation being determined by the measurement of IL-1B using ELISA (FIG. 6).
Background: In an ELISA, binding on a coated surface is turned into a signal by an enzyme label.

As for `CCCCCCCCCCCCCCCCCCCCCC(=O)OC[C@H]1O[C@H](O[C@H]2O[C@H](COC(=O)CCCCCCCCCCCCCCCCCCCCC)[C@@H](O)[C@H](O)[C@H]2O)[C@H](O)[C@@H](O)[C@@H]1O` [TDB, trehalose dibehenate, reference compound], in assay [1] (s.c. OVA 200 μg + adjuvant 0.3 μmol, oil-in-water emulsion), the “Th1 immune response / adjuvant activity in vivo” value is given as “limited efficacy”. In addition, in assay [1] (s.c. OVA 200 μg + adjuvant 0.3 μmol, OVA challenge 100 μg/footpad), the footpad swelling result was “neither 9a nor TDB induced any”. Moreover, the “IL-17 production by splenocytes restimulated with OVA” value in assay [1] (s.c. OVA 200 μg + adjuvant 0.3 μmol, restimulation 10, 30 or 100 μg/mL OVA) is “neither 9a nor TDB induced any”. In assay [1] (s.c. OVA 200 μg + adjuvant 0.3 μmol, splenocytes restimulated with 10, 30 or 100 μg/mL OVA), the “antigen specific IFN-γ production, all concentrations of OVA” value is “did not lead to a significant increase”. Besides, in assay [1] (serum, ELISA), the IgG1 antibody production entry is “showed increases”, the IgG2b antibody production result is “showed increases”, the IgG2c antibody production entry is on record as “showed increases” and the “production of OVA-specific IgG antibodies” value is “elevated the production of IgG antibodies”. Further, in assay [2], the IL-1β production entry is on record as “significant production”, the IL-6 production entry is “significant production”, the MIP-2 production entry is on record as “significant production” and the TNF production result is recorded as “significant production”.

Consider “trehalose dimycolate [TDM, reference compound]”, for which, in assay [2], the IL-1β production entry is reported as “significant production”, the IL-6 production result was “significant production”, the MIP-2 production result is on record as “significant production” and the TNF production result is “significant production”.
